Assay results from patent publication US11098026B2, “Fused bicyclic compounds, compositions and applications thereof” (IMPETIS BIOSCIENCES LIMITED, priority 2017, dated 2021).

Biological target: T1, human GPR91 receptor (Homo sapiens, UniProt Q9BXA5)
T1 construct: expressed in transfected cells; host or cells: CHO-K1 NFAT cells
T1 sequence (Q9BXA5 1-334): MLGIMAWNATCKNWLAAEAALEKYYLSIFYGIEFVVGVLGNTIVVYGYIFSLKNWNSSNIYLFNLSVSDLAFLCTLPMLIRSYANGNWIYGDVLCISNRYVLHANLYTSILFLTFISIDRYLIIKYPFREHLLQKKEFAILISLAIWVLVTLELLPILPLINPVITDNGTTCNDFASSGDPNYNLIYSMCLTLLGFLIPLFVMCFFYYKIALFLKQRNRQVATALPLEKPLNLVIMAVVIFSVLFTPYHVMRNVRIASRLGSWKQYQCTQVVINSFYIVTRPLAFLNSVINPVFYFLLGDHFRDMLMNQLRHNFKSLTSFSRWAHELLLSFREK
Experiment: Human GPR91 calcium mobilization assay
Type: cell-based
Details: CHO-K1 NFAT cells over expressing human GPR91 receptor; Fluo4 AM; agonist sodium succinate; flex station; read-out: hGPR91 IC50 (μM)*
Protocol: Human GPR91 Calcium Mobilization Assay
To determine IC50 in CHO NFAT cells over expressing human GPR91 receptor calcium mobilization assay in flex station mode was carried out.
Grow CHO-K1 NFAT cells over expressing human GPR91 receptors in alpha MEM media were supplemented with 10% FBS (heat inactivated), 0.5 mg/ml of G-418, 0.5 mg/ml of Zeocin and 0.6 mg/ml of Hygromycin B.
The cells were seeded at least 21 hours before the experiment at the density of 25000/well in 96 well plate (Corning cat #no. 3603). It was made sure that cells were at least 95% confluent on the day of assay. No antibiotics were used for seeding purpose.
On the day of assay the media was discarded from plates and plates were washed with 100 μl of HBSS assay buffer. The plates were loaded with Fluo4 AM at 2 μM concentration. Pluronic F-127 dye was solubilized in calcium assay buffer containing 0.1% BSA, i.e., 20 μl dye+20 μl Pluronic F127 for 10 ml. Appropriate amounts of 100× probenecid was added to the loading mixture 1× final (100 μl per 10 ml). Total volume of dye loaded was made 100 μl. The plate was then wrapped in aluminium foil to protect from light and were incubated for 90 mins at 37 degrees in cell culture incubator. At the end of incubation the plates was washed again with 100 μl of HBSS buffer without BSA and 75 μl of HBSS buffer was added (without BSA) to the plate.
Further, 8 point-Dose response curve of the compounds of the present disclosure was prepared in 100% DMSO followed by 57.14-fold dilution to 1.75× in 1.75% DMSO in assay buffer. 100 μL of 1.75×NCE was added to the wells as shown below and incubated at room temp on orbital shaker at 300 rpm for 15 min. Flexstation [excitation @ 485 nm and emission @ 525 nm] for a total time of 60 seconds. 25 μL of 8× agonist (800 μM sodium succinate) was added to each well using the flexstation after establishing the baseline for 20 sec, Measurement—Max-Min over 60 sec. Using the above protocol results obtained are tabulate din the Table 1 below: […]

Row | Compound | IC50
1 | O=C(O)CCc1cccc(Oc2ccc(Oc3cccc4c3OCCO4)cc2C(F)(F)F)c1 [Compound A-11, 3-[3-[4-(2,3-dihydro-1,4-benzodioxin-5-yloxy)-2-(trifluoromethyl)phenoxy]phenyl]propanoic acid] | > 10 µM
2 | O=C(O)CCc1cccc(Oc2ccc(Oc3cccc4cccnc34)cc2C(F)(F)F)c1 [Compound A-12, 3-[3-[4-(8-quinolyloxy)-2-(trifluoromethyl)phenoxy]phenyl]propanoic acid] | > 10 µM
3 | O=C(O)Cc1cccc(Oc2ccc(Oc3ccc4ncccc4c3)cc2C(F)(F)F)c1 [Compound A-6, 2-[3-[4-(6-quinolyloxy)-2-(trifluoromethyl)phenoxy]phenyl]acetic acid] | 5 to 10 µM
4 | FC(F)(F)c1cc(Oc2cccc3ccncc23)ccc1Oc1cccc(Cc2nnn[nH]2)c1 [Compound D-3, 8-[4-[3-(1H-tetrazol-5-ylmethyl)phenoxy]-3-(trifluoromethyl)phenoxy]isoquinoline] | 5 to 10 µM
5 | O=C(O)Cc1cccc(Oc2ccc(Oc3ccn4cnnc4c3)cc2C(F)(F)F)c1 [Compound A-19, 2-[3-[4-([1,2,4]triazolo[4,3-a]pyridin-7-yloxy)-2-(trifluoromethyl)phenoxy]phenyl]acetic acid] | > 10 µM
6 | O=C(O)Cc1cccc(Oc2ccc(Oc3cccc4nncn34)cc2C(F)(F)F)c1 [Compound A-17, 2-[3-[4-([1,2,4]triazolo[4,3-a]pyridin-5-yloxy)-2-(trifluoromethyl)phenoxy]phenyl]acetic acid] | > 10 µM
7 | FC(F)(F)c1cc(Oc2cccc3ccncc23)ccc1Oc1cccc(CCc2nnn[nH]2)c1 [Compound D-2, 8-[4-[3-[2-(1H-tetrazol-5-yl)ethyl]phenoxy]-3-(trifluoromethyl)phenoxy]isoquinoline] | 5 to 10 µM
8 | NC(=O)CCc1cccc(Oc2ccc(Oc3cccc4ccncc34)cc2C(F)(F)F)c1 [Compound C-2, 3-[3-[4-(8-isoquinolyloxy)-2-(trifluoromethyl)phenoxy]phenyl]propanamide] | 5 to 10 µM
9 | O=C(O)CCc1cccc(Oc2ccc(Oc3cccn4ccnc34)cc2C(F)(F)F)c1 [Compound A-7, 3-[3-[4-imidazo[1,2-a]pyridin-8-yloxy-2-(trifluoromethyl)phenoxy]phenyl]propanoic acid] | > 10 µM
10 | O=C(O)Cc1cccc(Oc2ccc(Oc3ccc4c(cnn4C4COC4)c3)cc2C(F)(F)F)c1 [Compound A-23, 2-[3-[4-[1-(oxetan-3-yl)indazol-5-yl]oxy-2-(trifluoromethyl)phenoxy]phenyl]acetic acid] | > 10 µM
11 | O=C(O)CCc1cccc(Oc2ccc(OC3CCc4ccccc43)cc2C(F)(F)F)c1 (stereo not shown) [Compound A-44, 3-[3-[4-indan-1-yloxy-2-(trifluoromethyl)phenoxy]phenyl]propanoic acid] | 5 to 10 µM
12 | O=C(O)CCc1cccc(Oc2ccc(Oc3cccc4c3CNCC4)cc2C(F)(F)F)c1 [Compound A-43, 3-[3-[4-(1,2,3,4-tetrahydroisoquinolin-8-yloxy)-2-(trifluoromethyl)phenoxy]phenyl]propanoic acid] | > 10 µM
13 | NC(=O)Cc1cccc(Oc2ccc(Oc3cccc4ccncc34)cc2C(F)(F)F)c1 [Compound C-3, 2-[3-[4-(8-isoquinolyloxy)-2-(trifluoromethyl)phenoxy]phenyl]acetamide] | < 5 µM
14 | O=C(O)CCc1cccc(Oc2ccc(Oc3cccc4ccncc34)cc2C(F)(F)F)c1 [Compound A-42, 3-[3-[4-(8-isoquinolyloxy)-2-(trifluoromethyl)phenoxy]phenyl]propanoic acid] | < 5 µM

Other lines, results leading:

Row | IC50 | Compound
15 | < 5 µM | O=C(O)CCc1ccc(Oc2ccc(Oc3cccc4ccncc34)cc2C(F)(F)F)cc1 [Compound A-34, 3-[4-[4-(8-isoquinolyloxy)-2-(trifluoromethyl)phenoxy]phenyl]propanoic acid]
16 | < 5 µM | Cn1cc2cc(Oc3ccc(Oc4cccc(CCC(=O)O)c4)c(C(F)(F)F)c3)ccc2n1 [Compound A-35, 3-[3-[4-(2-methylindazol-5-yl)oxy-2-(trifluoromethyl)phenoxy]phenyl]propanoic acid]
17 | < 5 µM | O=C(O)Cc1cccc(Oc2ccc(Oc3cccc4cncn34)cc2C(F)(F)F)c1 [Compound B-1, 2-[3-[4-imidazo[1,5-a]pyridin-5-yloxy-2-(trifluoromethyl)phenoxy]phenyl]acetic acid]
18 | < 5 µM | Cc1nc2ccc(Oc3ccc(Oc4cccc(CC(=O)O)c4)c(C(F)F)c3)cc2n1C1COC1 [Compound A-28, 2-[3-[2-(difluoromethyl)-4-[2-methyl-3-(oxetan-3-yl)benzimidazol-5-yl]oxy-phenoxy]phenyl]acetic acid]
19 | < 5 µM | O=C(O)Cc1cccc(Oc2ccc(Oc3cccn4cncc34)cc2C(F)(F)F)c1 [Compound B-2, 2-[3-[4-imidazo[1,5-a]pyridin-8-yloxy-2-(trifluoromethyl)phenoxy]phenyl]acetic acid]
20 | < 5 µM | O=C(O)Cc1cccc(Oc2ccc(Oc3ccc4c(c3)NCCO4)cc2C(F)(F)F)c1 [Compound A-18, 2-[3-[4-(3,4-dihydro-2H-1,4-benzoxazin-6-yloxy)-2-(trifluoromethyl)phenoxy]phenyl]acetic acid]
21 | < 5 µM | Cc1nccc2cccc(Oc3ccc(Oc4cccc(CC(=O)O)c4)c(C(F)(F)F)c3)c12 [Compound A-41, 2-[3-[4-[(1-methyl-8-isoquinolyl)oxy]-2-(trifluoromethyl)phenoxy]phenyl]acetic Acid]
22 | < 5 µM | O=C(O)CCc1cccc(Oc2ccc(Oc3cccc4cnccc34)cc2C(F)(F)F)c1 [Compound A-14, 3-[3-[4-(5-isoquinolyloxy)-2-(trifluoromethyl)phenoxy]phenyl]propanoic acid]
23 | < 5 µM | O=C(O)Cc1cccc(Oc2ncc(Oc3cccc4ccncc34)cc2C(F)(F)F)c1 [Compound A-36, 2-[3-[[5-(8-isoquinolyloxy)-3-(trifluoromethyl)-2-pyridyl]oxy]phenyl]acetic acid]
24 | < 5 µM | O=C(O)CCc1cccc(Oc2ccc(Oc3ccc4[nH]ncc4c3)cc2C(F)(F)F)c1 [Compound A-45, 3-[3-[4-(1H-indazol-5-yloxy)-2-(trifluoromethyl)phenoxy]phenyl]propanoic acid]
25 | < 5 µM | O=C(O)Cc1cccc(Oc2ccc(Oc3ccc4cn(C5COC5)nc4c3)cc2C(F)(F)F)c1 [Compound A-22, 2-[3-[4-[2-(oxetan-3-yl)indazol-6-yl]oxy-2-(trifluoromethyl)phenoxy]phenyl]acetic acid]
26 | < 5 µM | O=C(O)Cc1cccc(Oc2ccc(Oc3cccc4ccnc(Cl)c34)cc2C(F)(F)F)c1 [Compound A-40, 2-[3-[4-[(1-chloro-8-isoquinolyl)oxy]-2-(trifluoromethyl)phenoxy]phenyl]acetic acid]
27 | < 5 µM | O=C(O)Cc1cccc(Oc2ccc(Oc3ccc4[nH]nc(C(=O)O)c4c3)cc2C(F)(F)F)c1 [Compound A-47, 5-[4-[3-(carboxymethyl)phenoxy]-3-(trifluoromethyl)phenoxy]-1H-indazole-3-carboxylic acid]
28 | < 5 µM | O=C(O)Cc1cccc(Oc2ccc(Oc3cccc4ccncc34)cc2C(F)(F)F)c1 [Compound A-1, 2-[3-[4-(8-isoquinolyloxy)-2-(trifluoromethyl)phenoxy]phenyl]acetic acid]
